What was measured:
glucagon receptor [1] = target: glucagon receptor (Mus musculus, UniProt Q61606); test: Experiment for glucagon binding inhibition, mouse hepatic membrane (125I-glucagon); conditions: male ddY mouse hepatic membrane, 125I-glucagon 50 pM, 25° C. for 30 minutes; read-out: Glucagon binding inhibitory activity IC50 (nM) Mouse
Protocol: (§1) The preparation of membrane from mouse and rat livers was carried out according to the method described in Bioorg. Med. Chem. Lett. 1992, 12, 915-918 in this experiment and ^125I-glucagon binding activity was measured with these membranes as glucagon receptor's samples. Livers were removed from male SD rats (about 250 g body weight per rat) and male ddY mice (about 30 g body weight per mouse). […] The homogenate was centrifuged for 15 minutes at 30,000×g. […] The precipitaion thus obtained was used as a hepatic membrane sample. […] The mixture was incubated at 25° C. for 30 minutes. […] The filter was washed 3 times with 50 mM Tris-HCl buffer (pH 7.2), and the radioactivity of the filter was measured by a γ counter (ARC-360, Aloka Co., Ltd.). […] Each experiment was carried out in duplicate. […] The concentration at 50% inhibition of binding (IC50) was calculated using a pseudo Hill plot.

glucagon receptor [2] = target: glucagon receptor (Rattus norvegicus, UniProt P30082); test: Experiment for glucagon binding inhibition, rat hepatic membrane (125I-glucagon); conditions: male SD rat hepatic membrane, 125I-glucagon 50 pM, 25° C. for 30 minutes; read-out: Glucagon binding inhibitory activity IC50 (nM) Rat
Chain of glucagon receptor (Rattus norvegicus, UniProt P30082) (P30082 27-485): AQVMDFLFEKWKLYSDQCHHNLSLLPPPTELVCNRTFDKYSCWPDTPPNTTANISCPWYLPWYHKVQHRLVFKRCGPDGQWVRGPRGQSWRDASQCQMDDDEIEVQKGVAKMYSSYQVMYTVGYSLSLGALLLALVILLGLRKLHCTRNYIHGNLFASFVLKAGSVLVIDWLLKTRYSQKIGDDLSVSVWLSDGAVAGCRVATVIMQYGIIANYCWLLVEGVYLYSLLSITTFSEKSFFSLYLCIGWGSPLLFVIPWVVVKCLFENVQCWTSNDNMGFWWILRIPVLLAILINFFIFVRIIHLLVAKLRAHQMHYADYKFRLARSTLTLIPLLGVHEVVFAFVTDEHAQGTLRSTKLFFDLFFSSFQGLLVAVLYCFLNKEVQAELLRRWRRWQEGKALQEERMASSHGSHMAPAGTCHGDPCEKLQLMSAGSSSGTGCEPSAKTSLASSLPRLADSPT
Protocol: as §1

Chain of glucagon receptor (Mus musculus, UniProt Q61606) (Q61606 27-485): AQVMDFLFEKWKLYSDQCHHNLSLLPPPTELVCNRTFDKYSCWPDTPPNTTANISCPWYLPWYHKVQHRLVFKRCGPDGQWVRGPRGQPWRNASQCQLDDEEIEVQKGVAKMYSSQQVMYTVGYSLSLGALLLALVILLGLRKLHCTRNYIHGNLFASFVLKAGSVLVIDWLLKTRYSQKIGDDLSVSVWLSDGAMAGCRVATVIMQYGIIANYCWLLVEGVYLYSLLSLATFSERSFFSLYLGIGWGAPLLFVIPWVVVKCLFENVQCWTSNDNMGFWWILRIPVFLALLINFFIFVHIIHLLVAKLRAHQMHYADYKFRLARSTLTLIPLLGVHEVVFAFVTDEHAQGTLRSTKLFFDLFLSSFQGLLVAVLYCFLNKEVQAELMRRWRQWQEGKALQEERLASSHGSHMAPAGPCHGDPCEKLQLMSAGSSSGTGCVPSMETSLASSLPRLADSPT

| Compound | IC50 (glucagon receptor [1]) | melting point | IC50 (glucagon receptor [2]) |
| --- | --- | --- | --- |
| N#Cc1cc(C(=O)NNC(=O)c2occ(-c3ccc(F)cc3)c2-c2ccc(F)cc2)ccc1O [Example 45, 3,4-Bis(4-fluorophenyl)-2-furancarboxylic acid 2-(3-cyano-4-hydroxybenzoyl)hydrazide] | 120 nM | 243 to 245 °C | 220 nM |
| CCCCOc1cccc(-c2ccoc2C(=O)NNC(=O)c2ccc(O)c(C#N)c2)c1 [Example 107, 3-(3-Butoxyphenyl)-2-furancarboxylic acid 2-(3-cyano-4-hydroxybenzoyl)hydrazide] | 360 nM | 186 to 188 °C | 140 nM |
| Cc1cc(C)c(C)c(COc2ccc(-c3ccoc3C(=O)NNC(=O)c3ccc(O)c([N+](=O)[O-])c3)cc2)c1C [Example 113, 3-[4-(2,3,5,6-Tetramethylbenzyloxy)phenyl]-2-furancarboxylic acid 2-(4-hydroxy-3-nitrobenzoyl)hydrazide] | 43 nM | 203 to 204 °C | 28 nM |
| CS(=O)(=O)c1ccc(COc2cccc(-c3ccoc3C(=O)NNC(=O)c3ccc(O)c([N+](=O)[O-])c3)c2)cc1 [Example 120, 3-[3-(4-Methylsulfonylbenzyloxy)phenyl]-2-furancarboxylic acid 2-(4-hydroxy-3-nitrobenzoyl)hydrazide] | 27 nM | 114 to 117 °C | 37 nM |
| Cc1cccc(COc2cccc(-c3ccoc3C(=O)NNC(=O)c3ccc(O)c([N+](=O)[O-])c3)c2)c1 [Example 123, 3-[3-(3-Methylbenzyloxy)phenyl]-2-furancarboxylic acid 2-(4-hydroxy-3-nitrobenzoyl)hydrazide] | 65 nM | 144 to 145 °C | 33 nM |
| Cc1ccc(COc2cccc(-c3ccoc3C(=O)NNC(=O)c3ccc(O)c([N+](=O)[O-])c3)c2)cc1 [Example 126, 3-[3-(4-Methylbenzyloxy)phenyl]-2-furancarboxylic acid 2-(4-hydroxy-3-nitrobenzoyl)hydrazide] | 15 nM | 159 to 161 °C | 14 nM |
| CS(=O)(=O)c1ccc(COc2cccc(-c3ccoc3C(=O)NNC(=O)c3ccc(O)c(C#N)c3)c2)cc1 [Example 136, 3-[3-(4-methylsulfonylbenzyloxy)phenyl]-2-furancarboxylic acid 2-(3-cyano-4-hydroxybenzoyl)hydrazide] | 48 nM | 235 to 237 °C | 96 nM |
| O=C(NNC(=O)c1occc1-c1ccccc1)c1ccc(O)c([N+](=O)[O-])c1 [Example 143, 3-Phenyl-2-furancarboxylic acid 2-(4-hydroxy-3-nitrobenzoyl)hydrazide] | 56 nM | 154 to 156 °C | 89 nM |
| Cc1cccc(-c2ccoc2C(=O)NNC(=O)c2ccc(O)c([N+](=O)[O-])c2)c1 [Example 145, 3-(3-Methylphenyl)-2-furancarboxylic acid 2-(4-hydroxy-3-nitrobenzoyl)hydrazide] | 190 nM | 126 to 128 °C | 100 nM |
| Cc1ccc(-c2ccoc2C(=O)NNC(=O)c2ccc(O)c([N+](=O)[O-])c2)cc1 [Example 146, 3-(4-Methylphenyl)-2-furancarboxylic acid 2-(4-hydroxy-3-nitrobenzoyl)hydrazide] | 38 nM | 180 to 182 °C | 27 nM |
| Cc1ccc(-c2ccoc2C(=O)NNC(=O)c2ccc(O)c([N+](=O)[O-])c2)cc1C [Example 150, 3-(3,4-Dimethylphenyl)-2-furancarboxylic acid 2-(4-hydroxy-3-nitrobenzoyl)hydrazide] | 73 nM | 127 to 129 °C | 90 nM |
| CC(C)c1cccc(-c2ccoc2C(=O)NNC(=O)c2ccc(O)c([N+](=O)[O-])c2)c1 [Example 152, 3-(3-Isopropylphenyl)-2-furancarboxylic acid 2-(4-hydroxy-3-nitrobenzoyl)hydrazide] | 250 nM | 182 to 183 °C | 120 nM |
| CC(C)c1ccc(-c2ccoc2C(=O)NNC(=O)c2ccc(O)c([N+](=O)[O-])c2)cc1 [Example 153, 3-(4-Isopropylphenyl)-2-furancarboxylic acid 2-(4-hydroxy-3-nitrobenzoyl)hydrazide] | 18 nM | 194 to 196 °C | 24 nM |
| CCc1ccc(-c2ccoc2C(=O)NNC(=O)c2ccc(O)c([N+](=O)[O-])c2)cc1 [Example 156, 3-(4-Ethylphenyl)-2-furancarboxylic acid 2-(4-hydroxy-3-nitrobenzoyl)hydrazide] | 45 nM | 189 to 191 °C | 44 nM |
| CCCCCOc1ccc(-c2ccoc2C(=O)NNC(=O)c2ccc(O)c([N+](=O)[O-])c2)cc1 [Example 159, 3-(4-Pentyloxyphenyl)-2-furancarboxylic acid 2-(4-hydroxy-3-nitrobenzoyl)hydrazide] | 60 nM | 156 to 157 °C | 31 nM |
| CCCCOc1ccc(-c2ccoc2C(=O)NNC(=O)c2ccc(O)c([N+](=O)[O-])c2)cc1 [Example 161] | 140 nM | 155 to 156 °C | 100 nM |
| CC(C)CCOc1cccc(-c2ccoc2C(=O)NNC(=O)c2ccc(O)c([N+](=O)[O-])c2)c1 [Example 180, 3-(3-Isopentyloxyphenyl)-2-furancarboxylic acid 2-(4-hydroxy-3-nitrobenzoyl)hydrazide] | 46 nM | 122 to 124 °C | 84 nM |
| CCCCOc1cccc(-c2ccoc2C(=O)NNC(=O)c2ccc(O)c([N+](=O)[O-])c2)c1 [Example 181, 3-(3-Butoxyphenyl)-2-furancarboxylic acid 2-(4-hydroxy-3-nitrobenzoyl)hydrazide] | 62 nM | 135 to 138 °C | 30 nM |

The next compounds have a lower IC50 (glucagon receptor [1]) than those just listed; values first:

| IC50 (glucagon receptor [1]) | melting point | IC50 (glucagon receptor [2]) | Compound |
| --- | --- | --- | --- |
| 9.6 nM | 114 to 115 °C | 16 nM | Cc1ccccc1COc1cccc(-c2ccoc2C(=O)NNC(=O)c2ccc(O)c([N+](=O)[O-])c2)c1 [Example 119, 3-[3-(2-methylbenzyloxy)phenyl]-2-furancarboxylic acid 2-(4-hydroxy-3-nitrobenzoyl)hydrazide] |
| 7.8 nM | 131 to 132 °C | 8.6 nM | Cc1ccc(C)c(COc2cccc(-c3ccoc3C(=O)NNC(=O)c3ccc(O)c([N+](=O)[O-])c3)c2)c1 [Example 127, 3-[3-(2,5-Dimethylbenzyloxy)phenyl]-2-furancarboxylic acid 2-(4-hydroxy-3-nitrobenzoyl)hydrazide] |
| 2.8 nM | 172 to 173 °C | 3.4 nM | Cc1ccc(COc2cccc(-c3ccoc3C(=O)NNC(=O)c3ccc(O)c([N+](=O)[O-])c3)c2)c(C)c1 [Example 128, 3-[3-(2,4-Dimethylbenzyloxy)phenyl]-2-furancarboxylic acid 2-(4-hydroxy-3-nitrobenzoyl)hydrazide] |
| 6.1 nM | 157 to 162 °C | 5.2 nM | Cc1ccc(COc2cccc(-c3ccoc3C(=O)NNC(=O)c3ccc(O)c([N+](=O)[O-])c3)c2)cc1C [Example 129, 3-[3-(3,4-Dimethylbenzyloxy)phenyl]-2-furancarboxylic acid 2-(4-hydroxy-3-nitrobenzoyl)hydrazide] |
| 9.3 nM | 190 to 193 °C | 5.5 nM | CCCCc1ccc(-c2ccoc2C(=O)NNC(=O)c2ccc(O)c([N+](=O)[O-])c2)cc1 [Example 142, 3-(4-butylphenyl)-2-furancarboxylic acid 2-(4-hydroxy-3-nitrobenzoyl)hydrazide] |
| 7.1 nM | 144 to 146 °C | 5.9 nM | CCCCCCc1ccc(-c2ccoc2C(=O)NNC(=O)c2ccc(O)c([N+](=O)[O-])c2)cc1 [Example 158, 3-(4-Hexylphenyl)-2-furancarboxylic acid 2-(4-hydroxy-3-nitrobenzoyl)hydrazide] |
| 3.4 nM | 174 to 176 °C | 2.9 nM | CCCc1ccc(-c2ccoc2C(=O)NNC(=O)c2ccc(O)c([N+](=O)[O-])c2)cc1 [Example 160, 3-(4-Propylphenyl)-2-furancarboxylic acid 2-(4-hydroxy-3-nitrobenzoyl)hydrazide] |
| 8.6 nM | 163 to 165 °C | 9.6 nM | CCCCCc1ccc(-c2ccoc2C(=O)NNC(=O)c2ccc(O)c([N+](=O)[O-])c2)cc1 [Example 162, 3-(4-Pentylphenyl)-2-furancarboxylic acid 2-(4-hydroxy-3-nitrobenzoyl)hydrazide] |
| 6.5 nM | 180 to 181 °C | 3.9 nM | COc1ccc(COc2cccc(-c3ccoc3C(=O)NNC(=O)c3ccc(O)c([N+](=O)[O-])c3)c2)cn1 [Example 164, 3-[3-(2-Methoxy-5-pyridylmethyloxy)phenyl]-2-furancarboxylic acid 2-(4-hydroxy-3-nitrobenzoyl)hydrazide] |
| 5.2 nM | 172 to 174 °C | 6.4 nM | COc1ccc(COc2cccc(-c3ccoc3C(=O)NNC(=O)c3ccc(O)c([N+](=O)[O-])c3)c2)cc1 [Example 176, 3-[3-(4-Methoxybenzyloxy)phenyl]-2-furancarboxylic acid 2-(4-hydroxy-3-nitrobenzoyl)hydrazide] |

Reference: US7514452B2, “2-furancarboxylic acid hydrazides and pharmaceutical compositions containing the same” (Dainippon Pharmaceutical Co., Ltd, priority 2002, dated 2009)
